Source: patent US9708305B2, “Substituted 1,2,3,4-tetrahydroisoquinoline derivatives for the treatment of hormone-dependent diseases” (UNIVERSITÉ LAVAL, priority 2013, dated 2017)
Several values for one entry are separate records, joined by “and”; a condition that tells them apart may be missing. Equal values may be shown once.

Target: T1, STS (Homo sapiens, UniProt P08842)
T1 construct: expressed in transfected cells; host or cells: HEK-293 cells stably transfected with STS (G418 selection), obtained from Dr. Van Luu-The; used as freeze-thaw homogenate
T1 sequence (P08842 22-583): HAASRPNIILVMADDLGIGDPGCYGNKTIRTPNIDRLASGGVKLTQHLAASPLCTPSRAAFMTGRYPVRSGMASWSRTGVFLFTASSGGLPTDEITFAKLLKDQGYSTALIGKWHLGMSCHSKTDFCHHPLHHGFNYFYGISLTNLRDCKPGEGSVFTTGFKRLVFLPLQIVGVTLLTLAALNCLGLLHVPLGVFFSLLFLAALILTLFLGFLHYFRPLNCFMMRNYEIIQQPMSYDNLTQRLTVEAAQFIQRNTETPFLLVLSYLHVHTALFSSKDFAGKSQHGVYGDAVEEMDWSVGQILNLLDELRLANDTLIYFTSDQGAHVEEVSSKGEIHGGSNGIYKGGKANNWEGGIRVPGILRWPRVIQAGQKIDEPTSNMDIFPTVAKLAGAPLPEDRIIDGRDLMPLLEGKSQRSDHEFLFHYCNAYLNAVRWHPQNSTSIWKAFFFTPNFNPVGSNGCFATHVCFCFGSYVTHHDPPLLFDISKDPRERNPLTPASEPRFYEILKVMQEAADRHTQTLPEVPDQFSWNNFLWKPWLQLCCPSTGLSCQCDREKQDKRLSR
Experiment: STS inhibition of libraries 1-EO to 4-EO, homogenate of STS transfected HEK-293 cells
Type: biochemical
Details: mean ± SEM, triplicate
Description: The enzymatic assay was performed using homogenate of STS transfected HEK-293 cells as the source of enzyme activity. The transformation of [^3H]-E1S into [^3H]-E1 was measured using scintillation counting of labeled E1S and E1 in the aqueous and organic phases, respectively. Newly synthesized sulfamate compounds were tested at two concentrations (0.1 μM and 1 μM). Libraries 1-EO and 2-EO were synthesized using the p- and m-benzamide spacers as 1st level of molecular diversity and the same wide variety of secondary amines as 2nd level of diversity (Table 2), which were chosen in a somewhat random fashion while including a different pattern, format and heteroatom. […] Compounds 1-EO-07, 1-EO-09 and 1-EO-10 represent a starting point for optimization, as they show more than 36% of inhibition when tested at a concentration of 0.1 μM. These compounds have relatively hydrophobic substituents compared to the rest of the library members. […] The average log P value for the rest of the library, excluding these three compounds, is 1.93.
This enzymatic assay was carried out according to a procedure previously described for the transformation of substrate [^3H]-E1S (100 μM) into [^3H]-E1 by homogenated HEK-293 cells over-expressing the enzyme activity.^56,73

| Structure (SMILES) | STS inhibition (%) (1 μM) | STS inhibition (%) (0.1 μM) | STS inhibition (%) (1 μM, listed as 1-EO-9, 1 µM) |
| --- | --- | --- | --- |
| NS(=O)(=O)Oc1ccc2c(c1)CN(C(=O)c1ccc(CN3CCC(Cc4ccccc4)CC3)cc1)CC2 [1-EO-07] | 81.3 ± 0.5 |  |  |
| CC(C)CCN(CCC(C)C)Cc1ccc(C(=O)N2CCc3ccc(OS(N)(=O)=O)cc3C2)cc1 [3-EO-09] | 90.8 ± 1.7 | 47.0 ± 13.0% |  |
| CCN(Cc1ccncc1)Cc1ccc(C(=O)N2CCc3ccc(OS(N)(=O)=O)cc3C2)cc1 [3-EO-16] | 86.6 ± 1.8 | 47.0 ± 1.8% |  |
| CCN(Cc1cccc(Br)c1)Cc1cccc(C(=O)N2CCc3ccc(OS(N)(=O)=O)cc3C2)c1 [4-EO-12] | 24.9 ± 0.6 | 20.9 ± 7.1% |  |
| CN1CCN(Cc2ccc(C(=O)N3CCc4ccc(OS(N)(=O)=O)cc4C3)cc2)CC1 [1-EO-04] | 23.3 ± 1.3 | 2.9 ± 0.5% |  |
| NS(=O)(=O)Oc1ccc2c(c1)CN(C(=O)c1ccc(CN3CCOCC3)cc1)CC2 [1-EO-01] | 50.6 ± 1.2 | 10.9 ± 3.5% |  |
| CCN(Cc1ccc(C(=O)N2CCc3ccc(OS(N)(=O)=O)cc3C2)cc1)Cc1cccc(Br)c1 [3-EO-12] | 97.2 ± 0.6 | 80% and 80.2 ± 8.0% |  |
| CN(C)CCCN(Cc1ccccc1)Cc1cccc(C(=O)N2CCc3ccc(OS(N)(=O)=O)cc3C2)c1 [4-EO-05] | 26.0 ± 8.5 | 23.8 ± 4.1% |  |
| NS(=O)(=O)Oc1ccc2c(c1)CN(C(=O)c1cccc(CN3CCc4ccccc4C3)c1)CC2 [4-EO-10] | 50.2 ± 1.9 | 24.1 ± 5.6% |  |
| NS(=O)(=O)Oc1ccc2c(c1)CN(C(=O)c1ccc(CN(CCO)Cc3ccccc3)cc1)CC2 [3-EO-02] | 78.0 ± 1.1 | 27.9 ± 2.6% |  |
| CCCN(Cc1ccccc1)Cc1cccc(C(=O)N2CCc3ccc(OS(N)(=O)=O)cc3C2)c1 [4-EO-01] | 67.4 ± 10.9 | 23.1 ± 7.5% |  |
| NS(=O)(=O)Oc1ccc2c(c1)CN(C(=O)c1ccc(CN3CCC(N4CCCCC4)CC3)cc1)CC2 [1-EO-08] | 53.7 ± 4.7 | 8.5 ± 1.2% |  |
| NS(=O)(=O)Oc1ccc2c(c1)CN(C(=O)c1cccc(CN(CCCO)Cc3ccccc3)c1)CC2 [4-EO-03] | 37.3 ± 7.0 | 25.8 ± 3.9% |  |
| CCN(Cc1cccnc1)Cc1cccc(C(=O)N2CCc3ccc(OS(N)(=O)=O)cc3C2)c1 [4-EO-15] | 33.5 ± 5.8 | 14.3 ± 4.7% |  |
| CC(C)CCN(CCC(C)C)Cc1cccc(C(=O)N2CCc3ccc(OS(N)(=O)=O)cc3C2)c1 [4-EO-09] |  | 32.3 ± 2.9% |  |
| NS(=O)(=O)Oc1ccc2c(c1)CN(C(=O)c1ccc(CN3CCN(Cc4ccccc4)CC3)cc1)CC2 [1-EO-05] | 75.8 ± 1.6 | 20.8 ± 3.7% |  |
| CCN(Cc1ccc(Br)cc1)Cc1ccc(C(=O)N2CCc3ccc(OS(N)(=O)=O)cc3C2)cc1 [3-EO-13] | 95.9 ± 0.6 | 78% and 78.2 ± 1.7% |  |
| NS(=O)(=O)Oc1ccc2c(c1)CN(C(=O)c1cccc(CN3CCC(Cc4ccccc4)CC3)c1)CC2 [2-EO-07] | 41.9 ± 2.7 | 1.4 ± 0.6% |  |
| NS(=O)(=O)Oc1ccc2c(c1)CN(C(=O)c1ccc(CN3CCc4ccccc4C3)cc1)CC2 [3-EO-10] | 83.0 ± 11.9 | 56.0 ± 7.2% |  |
| CN(C)CCN(Cc1ccccc1)Cc1cccc(C(=O)N2CCc3ccc(OS(N)(=O)=O)cc3C2)c1 [4-EO-04] | 28.6 ± 2.2 | 0.0 ± 0.0% |  |
| NS(=O)(=O)Oc1ccc2c(c1)CN(C(=O)c1cccc(CN3CCC(N4CCCCC4)CC3)c1)CC2 [2-EO-08] | 8.0 ± 1.1 | 0.0 ± 2.4% |  |

| Structure (SMILES) | STS inhibition (%) (1 μM) | STS inhibition (%) (0.1 μM) | STS inhibition (%) (1 μM, listed as 1-EO-9, 1 µM) |
| --- | --- | --- | --- |
| NS(=O)(=O)Oc1ccc2c(c1)CN(C(=O)c1cccc(CN3CCN(Cc4ccccc4)CC3)c1)CC2 [2-EO-05] | 23.7 ± 0.6 | 0.0 ± 3.1% |  |
| NS(=O)(=O)Oc1ccc2c(c1)CN(C(=O)c1cccc(CN3CCSCC3)c1)CC2 [2-EO-03] | 39.6 ± 2.8 | 2.3 ± 0.1% |  |
| CN(CCCN1CCCCC1)Cc1ccc(C(=O)N2CCc3ccc(OS(N)(=O)=O)cc3C2)cc1 [3-EO-07] | 40.7 ± 8.6 | 17.4 ± 12.3% |  |
| CN(CCN1CCCCC1)Cc1ccc(C(=O)N2CCc3ccc(OS(N)(=O)=O)cc3C2)cc1 [3-EO-06] | 26.8 ± 13.5 | 0.3 ± 1.7% |  |
| CN1CCN(Cc2cccc(C(=O)N3CCc4ccc(OS(N)(=O)=O)cc4C3)c2)CC1 [2-EO-04] | 12.6 ± 2.3 | 0.0 ± 12.2% |  |
| CCN(Cc1ccc(F)cc1)Cc1ccc(C(=O)N2CCc3ccc(OS(N)(=O)=O)cc3C2)cc1 [3-EO-17] | 91.2 ± 2.7 | 69.1 ± 1.9% |  |
| NS(=O)(=O)Oc1ccc2c(c1)CN(C(=O)c1cccc(CN3CCOCC3)c1)CC2 [2-EO-01] | 20.9 ± 4.4 | 0.0 ± 4.7% |  |
| CN(C)CCN(Cc1ccccc1)Cc1ccc(C(=O)N2CCc3ccc(OS(N)(=O)=O)cc3C2)cc1 [3-EO-04] | 57.8 ± 3.4 | 13.9 ± 4.8% |  |
| CCN(Cc1ccccc1)Cc1cccc(C(=O)N2CCc3ccc(OS(N)(=O)=O)cc3C2)c1 [2-EO-09] | 69.0 ± 0.0 | 17% and 17.3 ± 2.5% |  |
| CCN(Cc1ccc(F)cc1)Cc1cccc(C(=O)N2CCc3ccc(OS(N)(=O)=O)cc3C2)c1 [4-EO-17] | 66.5 ± 4.5 | 10.9 ± 7.4% |  |
| NS(=O)(=O)Oc1ccc2c(c1)CN(C(=O)c1cccc(CN3CCCCC3)c1)CC2 [2-EO-02] | 11.9 ± 2.6 | 1.0 ± 5.1% |  |
| CCN(Cc1ccc(Br)cc1)Cc1cccc(C(=O)N2CCc3ccc(OS(N)(=O)=O)cc3C2)c1 [4-EO-13] |  | 24.2 ± 4.9% |  |
| CCCN(CCC)Cc1cccc(C(=O)N2CCc3ccc(OS(N)(=O)=O)cc3C2)c1 [2-EO-10] | 54.8 ± 1.2 | 8.3 ± 0.0% |  |
| CN(CCN1CCCCC1)Cc1cccc(C(=O)N2CCc3ccc(OS(N)(=O)=O)cc3C2)c1 [4-EO-06] | 30.8 ± 6.4 | 24.5 ± 7.4% |  |
| CN(C)CCN(CCN(C)C)Cc1ccc(C(=O)N2CCc3ccc(OS(N)(=O)=O)cc3C2)cc1 [3-EO-08] | 15.9 ± 21.5 | 3.8 ± 9.6% |  |
| NS(=O)(=O)Oc1ccc2c(c1)CN(C(=O)c1cccc(CN(CCO)Cc3ccccc3)c1)CC2 [4-EO-02] | 32.4 ± 6.3 | 26.7 ± 7.2% |  |
| CCCN(Cc1ccccc1)Cc1ccc(C(=O)N2CCc3ccc(OS(N)(=O)=O)cc3C2)cc1 [3-EO-01] | 94.3 ± 0.3 | 64.8 ± 3.8% |  |
| CN(CCCN1CCCCC1)Cc1cccc(C(=O)N2CCc3ccc(OS(N)(=O)=O)cc3C2)c1 [4-EO-07] | 30.6 ± 6.9 | 24.1 ± 0.4% |  |
| NS(=O)(=O)Oc1ccc2c(c1)CN(C(=O)c1ccc(CN3CCSCC3)cc1)CC2 [1-EO-03] | 80.2 ± 0.9 | 32.3 ± 1.0% |  |
| CCN(Cc1ccccc1)Cc1ccc(C(=O)N2CCc3ccc(OS(N)(=O)=O)cc3C2)cc1 [1-EO-09] | 83.6 ± 0.2 |  | 84 |
